From the supplement of paper PMC10307832

Compound: COc1cc([C@@H]2c3cc4c(cc3[C@@H](O[C@@H]3O[C@@H]5CO[C@@H](C)O[C@H]5[C@H](O)[C@H]3O)[C@H]3COC(=O)[C@H]23)OCO4)cc(OC)c1O [Etoposide]
Assay: relative viability (nuclei count vs DMSO), 5 days (fraction); higher = more cells survive
Details: 0.01 µM
Method in brief: (§1)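 Viability is treated-well nuclei as a fraction of vehicle-well nuclei, reported as the median across plates. Before counting, lung cancer cell lines were kept overnight at 37 °C in 1536-well plates, pinned with five √10-spaced library-drug doses on vehicle-anchored plates, and left 5 days without medium change, then fixed, permeabilised and Hoechst-stained in one step, imaged at 4× and counted by MetaXpress. A plate passed only if control CV was below 25% and at least one doubling occurred.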

Row | Cell Line | relative viability
1 | NCI-H2085 | 0.926
2 | Calu-6 | 0.938
3 | HCC-366 | 0.992
4 | NCI-H1666 | 0.947
5 | NCI-H647 | 0.815
6 | LK-2 | 0.979
7 | NCI-H2126 | 0.977
8 | SK-MES-1 | 0.978
9 | H3255 | 0.962
10 | COR-L23 | 0.865
11 | COR-L 105 | 0.979
12 | IA-LM | 0.88
13 | LOU-NH91 | 0.978
14 | NCI-H2170 | 0.938
15 | NCI-H3122 | 1
16 | HOP-62 | 1.06
17 | HCC-44 | 1.06
18 | A549 | 0.875
19 | LU99A | 0.934
20 | BEN | 0.932
21 | HARA | 0.856
22 | HCC-78 | 0.942
23 | LCLC-97TM1 | 0.945
24 | NCI-H2009 | 1.02
25 | A-427 | 0.968
26 | NCI-H460 | 0.899
27 | NCI-H727 | 0.945

Same assay, conditions: 0.03162 µM

Row | Cell Line | relative viability
28 | NCI-H2085 | 1.01
29 | Calu-6 | 0.985
30 | HCC-366 | 1.07
31 | NCI-H1666 | 0.908
32 | NCI-H647 | 1.07
33 | LK-2 | 1.31
34 | NCI-H2126 | 1.05
35 | SK-MES-1 | 1.06
36 | H3255 | 1.09
37 | COR-L23 | 1.05
38 | COR-L 105 | 0.98
39 | IA-LM | 0.946
40 | LOU-NH91 | 1.01
41 | NCI-H2170 | 0.985
42 | NCI-H3122 | 0.995
43 | HOP-62 | 1.11
44 | HCC-44 | 1.03
45 | A549 | 0.947
46 | LU99A | 1.17
47 | BEN | 0.986
48 | HARA | 1.18
49 | HCC-78 | 1.09
50 | LCLC-97TM1 | 1.14
51 | NCI-H2009 | 1.03
52 | A-427 | 1.12
53 | NCI-H460 | 0.933
54 | NCI-H727 | 1.04

Same assay, conditions: 0.1 µM

Row | Cell Line | relative viability
55 | NCI-H2085 | 0.903
56 | Calu-6 | 1.05
57 | HCC-366 | 0.769
58 | NCI-H1666 | 0.818
59 | NCI-H647 | 0.815
60 | LK-2 | 0.684
61 | NCI-H2126 | 0.63
62 | SK-MES-1 | 0.9
63 | H3255 | 0.73
64 | COR-L23 | 0.976
65 | COR-L 105 | 0.638
66 | IA-LM | 0.742
67 | LOU-NH91 | 0.853
68 | NCI-H3122 | 0.983
69 | HOP-62 | 0.824
70 | HCC-44 | 1.02
71 | A549 | 0.476
72 | LU99A | 0.499
73 | HARA | 0.979
74 | HCC-78 | 0.687
75 | LCLC-97TM1 | 0.634
76 | NCI-H2009 | 0.938
77 | A-427 | 0.699
78 | NCI-H460 | 0.785
79 | NCI-H727 | 0.586

Same assay, conditions: 0.3162 µM

Row | Cell Line | relative viability
80 | NCI-H2085 | 0.868
81 | Calu-6 | 0.684
82 | HCC-366 | 0.377
83 | NCI-H1666 | 0.483
84 | NCI-H647 | 0.442
85 | LK-2 | 0.663
86 | NCI-H2126 | 0.859
87 | SK-MES-1 | 0.587
88 | H3255 | 0.725
89 | COR-L23 | 0.704
90 | COR-L 105 | 0.823
91 | IA-LM | 0.875
92 | LOU-NH91 | 0.826
93 | NCI-H2170 | 0.986
94 | NCI-H3122 | 0.854
95 | HOP-62 | 0.712
96 | HCC-44 | 0.899
97 | A549 | 0.281
98 | LU99A | 0.681
99 | BEN | 1
100 | HARA | 0.849
101 | HCC-78 | 0.515
102 | LCLC-97TM1 | 0.468
103 | NCI-H2009 | 0.765
104 | A-427 | 0.612
105 | NCI-H460 | 0.164
106 | NCI-H727 | 0.87

Same assay, conditions: 1 µM

Row | Cell Line | relative viability
107 | NCI-H2085 | 0.507
108 | Calu-6 | 0.365
109 | HCC-366 | 0.0702
110 | NCI-H1666 | 0.414
111 | NCI-H647 | 0.195
112 | LK-2 | 0.268
113 | NCI-H2126 | 0.441
114 | SK-MES-1 | 0.258
115 | H3255 | 0.433
116 | COR-L23 | 0.324
117 | COR-L 105 | 0.662
118 | IA-LM | 0.655
119 | LOU-NH91 | 0.486
120 | NCI-H2170 | 0.834
121 | NCI-H3122 | 0.333
122 | HOP-62 | 0.372
123 | HCC-44 | 0.594
124 | A549 | 0.131
125 | LU99A | 0.233
126 | BEN | 0.913
127 | HARA | 0.348
128 | HCC-78 | 0.273
129 | LCLC-97TM1 | 0.138
130 | NCI-H2009 | 0.42
131 | A-427 | 0.237
132 | NCI-H460 | 0.0591
133 | NCI-H727 | 0.852

Compound: CC1=C(N=C(N=C1N)[C@H](CC(=O)N)NC[C@@H](C(=O)N)N)C(=O)N[C@@H]([C@H](C2=CN=CN2)OC3C(C(C(C(O3)CO)O)O)OC4C(C(C(C(O4)CO)O)OC(=O)N)O)C(=O)N[C@H](C)[C@H]([C@H](C)C(=O)N[C@@H]([C@@H](C)O)C(=O)NCCC5=NC(=CS5)C6=NC(=CS6)C(=O)NCCC[S+](C)C)O [Bleomycin]
Assay: as above
Details: 0.01 µM; main component drawn
Method in brief: as §1

Row | Cell Line | relative viability
134 | NCI-H2085 | 0.925
